According to patent publication US11339165B2, “Pyrazolopyrimidines having activity against the respiratory syncytial virus (RSV)” (priority 2017, dated 2022):

Tests used:
rgRSV224 virus = test: Antiviral activity: rgRSV224 (GFP) replication in HeLa cells; format: cell-based, respiratory syncytial virus (RSV); settings: human respiratory syncytial virus, HeLa, 72 h, read-out: RSV HELA EC50 (μM), rgRSV224 virus (MOI=1), HeLa cells, GFP expression three days post-virus exposure
in vitro = settings: human, TOX HELA CC50 (μM)
Procedure: Black 384-well clear-bottom microtiter plates (Corning, Amsterdam, The Netherlands) were filled via acoustic drop ejection using the echo liquid handler (Labcyte, Sunnyvale, Calif.). 200 nL of compound stock solutions (100% DMSO) were transferred to the assay plates. 9 serial 4-fold dilutions of compound were made, creating per quadrant the same compound concentration. The assay was initiated by adding 10 μL of culture medium to each well (RPMI medium without phenol red, 10% FBS-heat inactivated, 0.04% gentamycin (50 mg/mL). All addition steps are done by using a multidrop dispenser (Thermo Scientific, Erembodegem, Belgium). Next, rgRSV224 virus (MOI=1) diluted in culture medium was added to the plates. rgRSV224 virus is an engineered virus that includes an additional GFP gene (Hallak L K, Spillmann D, Collins P L, Peeples M E. Glycosaminoglycan sulfation requirements for respiratory syncytial virus infection; Journal of virology (2000), 74(22), 10508-13) and was in-licensed from the NIH (Bethesda, Md., USA). Finally, 20 μL of a HeLa cell suspension (3,000 cells/well) were plated. Medium, virus- and mock-infected controls were included in each test. The wells contain 0.05% DMSO per volume. Cells were incubated at 37° C. in a 5% CO2 atmosphere. Three days post-virus exposure, viral replication was quantified by measuring GFP expression in the cells by an in house developed MSM laser microscope (Tibotec, Beerse, Belgium). The EC50 was defined as the 50% inhibitory concentration for GFP expression. In parallel, compounds were incubated for three days in a set of white 384-well microtiter plates (Corning) and the cytotoxicity of compounds in HeLa cells was determined by measuring the ATP content of the cells using the ATPlite kit (Perkin Elmer, Zaventem, Belgium) according to the manufacturer's instructions. The CC50 was defined as the 50% concentration for cytotoxicity.

Row | Compound | EC50 (rgRSV224 virus) | melting point | CC50 at 3 days (in vitro)
1 | C[C@@H]1c2ccccc2CCN1C(=O)c1cc(C2CC2)n2nc(-c3cnc(N4CC[C@H](C(=O)NS(C)(=O)=O)C4)cc3F)cc2n1 [Compound 54, (3S)-1-(5-{7-Cyclopropyl-5-[(1R)-1-methyl-1,2,3,4-tetrahydroisoquinoline-2-carbonyl]-pyrazolo[1,5-a]pyrimidin-2-yl}-4-fluoropyridin-2-yl)-N-methanesulfonylpyrrolidine-3-carboxamide] | 0.192 µM | 254.46 °C | 77.4 µM
2 | C[C@@H]1c2ccccc2CCN1C(=O)c1cc(-c2ccccn2)n2nc(-c3ccc(N4CC[C@H](C(N)=O)C4)cc3F)cc2n1 [Compound 84, (3S)-1-(3-Fluoro-4-{5-[(1R)-1-methyl-1,2,3,4-tetrahydroisoquinoline-2-carbonyl]-7-(pyridin-2-yl)pyrazolo[1,5-a]pyrimidin-2-yl}phenyl)pyrrolidine-3-carboxamide] | 0.006 µM | 252.18 °C | 19 µM
3 | CNC(=O)C1CCN(c2ccc(-c3cc4nc(C(=O)N5CCc6ccccc6[C@H]5C)cc(C5CC5)n4n3)c(F)c2)CC1 [Compound 72, 1-(4-{7-Cyclopropyl-5-[(1R)-1-methyl-1,2,3,4-tetrahydroisoquinoline-2-carbonyl]-pyrazolo[1,5-a]pyrimidin-2-yl}-3-fluorophenyl)-N-methylpiperidine-4-carboxamide] | 0.087 µM | 252.4 °C | > 100 µM
4 | C[C@@H]1c2ccccc2CCN1C(=O)c1cc(C2CC2)n2nc(-c3cc(F)c(N4CC[C@H](C(N)=O)C4)cc3F)cc2n1 [Compound 55, (3S)-1-(4-{7-Cyclopropyl-5-[(1R)-1-methyl-1,2,3,4-tetrahydroisoquinoline-2-carbonyl]-pyrazolo[1,5-a]pyrimidin-2-yl}-2,5-difluorophenyl)pyrrolidine-3-carboxamide] | 0.016 µM | 253.3 °C | > 100 µM
5 | C[C@@H]1c2ccccc2CCN1C(=O)c1cc(C2CC2)n2nc(-c3ccc(N4C[C@H](C(N)=O)C[C@@H]4C)cc3F)cc2n1 (single isomer, unassigned) [Compound 33, (3*R,5*S)-1-(4-{7-cyclopropyl-5-[(1R)-1-methyl-1,2,3,4-tetrahydroisoquinoline-2-carbonyl]pyrazolo[1,5-a]pyrimidin-2-yl}-3-fluorophenyl)-5-methylpyrrolidine-3-carboxamide] | 0.043 µM | 292.7 °C | 34.5 µM
6 | C[C@@H]1c2ccccc2CCN1C(=O)c1cc(C2CC2)n2nc(-c3ccc(N4CC[C@@H](C(N)=O)[C@H]4C)cc3F)cc2n1 (single isomer, unassigned) [Compound 80, (2*R,3*R)-1-(4-{7-Cyclopropyl-5-[(1R)-1-methyl-1,2,3,4-tetrahydroisoquinoline-2-carbonyl]pyrazolo[1,5-a]pyrimidin-2-yl}-3-fluorophenyl)-2-methylpyrrolidine-3-carboxamide] | 0.091 µM | 182.93 °C | 35.9 µM
7 | C[C@@H]1c2ccccc2CCN1C(=O)c1cc(C2CC2)n2nc(-c3ccc(N4CC[C@H](C(N)=O)[C@@H]4C)cc3F)cc2n1 (single isomer, unassigned) [Compound 83, (2*S,3*S)-1-(4-{7-Cyclopropyl-5-[(1R)-1-methyl-1,2,3,4-tetrahydroisoquinoline-2-carbonyl]pyrazolo[1,5-a]pyrimidin-2-yl}-3-fluorophenyl)-2-methylpyrrolidine-3-carboxamide] | 0.044 µM | 235.56 °C | 42.4 µM
8 | C[C@@H]1c2ccccc2CCN1C(=O)c1cc(C2CC2)n2nc(-c3ccc(N4CC[C@H](C(N)=O)C4)cc3F)cc2n1 [Compound 36, (3S)-1-(4-{7-Cyclopropyl-5-[(1R)-1-methyl-1,2,3,4-tetrahydroisoquinoline-2-carbonyl]pyrazolo[1,5-a]pyrimidin-2-yl}-3-fluorophenyl)pyrrolidine-3-carboxamide] | 0.012 µM | 237.7 °C | 29.3 µM
9 | COc1ccc(-c2cc(C(=O)N3CCc4ccccc4[C@H]3C)nc3cc(-c4ccc(N5CC[C@H](C(N)=O)C5)cc4F)nn23)cc1 [Compound 57, (3S)-1-{3-Fluoro-4-[7-(4-methoxyphenyl)-5-[(1R)-1-methyl-1,2,3,4-tetrahydro-isoquinoline-2-carbonyl]pyrazolo[1,5-a]pyrimidin-2-yl]phenyl}pyrrolidine-3-carboxamide] | 0.023 µM | 216.34 °C | > 100 µM
10 | C[C@@H]1c2ccsc2CCN1C(=O)c1cc(C2CC2)n2nc(-c3ccc(N4CC[C@H](C(N)=O)C4)cc3F)cc2n1 (single isomer, unassigned) [Compound 46, (3S)-1-(4-{7-Cyclopropyl-5-[(4*R)-4-methyl-4,5,6,7-tetrahydro-thieno[3,2-c]pyridine-5-carbonyl]pyrazolo[1,5-a]pyrimidin-2-yl}-3-fluorophenyl)pyrrolidine-3-carboxamide] | 0.007 µM | 270 °C | 31.3 µM
11 | C[C@@H]1c2ccccc2CCN1C(=O)c1cc(C2CC2)n2nc(-c3ccc(N4CCC(O)CC4)cc3F)cc2n1 [Compound 74, 1-(4-{7-Cyclopropyl-5-[(1R)-1-methyl-1,2,3,4-tetrahydroisoquinoline-2-carbonyl]-pyrazolo[1,5-a]pyrimidin-2-yl}-3-fluorophenyl)piperidin-4-ol] | 0.076 µM | 144.01 °C | 48.1 µM
12 | C[C@@H]1c2ccccc2CCN1C(=O)c1cc(C2CC2)n2nc(-c3ccc(N4CC(C(N)=O)C4)cc3F)cc2n1 [Compound 91, 1-(4-{7-Cyclopropyl-5-[(1R)-1-methyl-1,2,3,4-tetrahydroisoquinoline-2-carbonyl]pyrazolo[1,5-a]pyrimidin-2-yl}-3-fluorophenyl)azetidine-3-carboxamide] | 0.036 µM | 236.01 °C | 28.3 µM
13 | C[C@@H]1c2ccccc2CCN1C(=O)c1cc(C2CC2)n2nc(-c3ccc(N4CC[C@@H](C(N)=O)[C@@H]4C)cc3F)cc2n1 (single isomer, unassigned) [Compound 82, (2*S,3*R)-1-(4-{7-Cyclopropyl-5-[(1R)-1-methyl-1,2,3,4-tetrahydroisoquinoline-2-carbonyl]pyrazolo[1,5-a]pyrimidin-2-yl}-3-fluorophenyl)-2-methylpyrrolidine-3-carboxamide] | 0.033 µM | 294.89 °C | 33.1 µM
14 | C[C@@H]1c2ccccc2CCN1C(=O)c1cc(C2CC2)n2nc(-c3cnc(N4CC[C@H](C(N)=O)C4)cc3F)cc2n1 [Compound 52, (3S)-1-(5-{7-Cyclopropyl-5-[(1R)-1-methyl-1,2,3,4-tetrahydroisoquinoline-2-carbonyl]-pyrazolo[1,5-a]pyrimidin-2-yl}-4-fluoropyridin-2-yl)pyrrolidine-3-carboxamide] | 0.014 µM | 246.17 °C | 41.3 µM
15 | C[C@@H]1c2ccccc2CCN1C(=O)c1cc(C2CC2)n2nc(-c3ccc(N4CC[C@H](C(N)=O)[C@H]4C)cc3F)cc2n1 (single isomer, unassigned) [Compound 81, (2*R,3*S)-1-(4-{7-Cyclopropyl-5-[(1R)-1-methyl-1,2,3,4-tetrahydroisoquinoline-2-carbonyl]pyrazolo[1,5-a]pyrimidin-2-yl}-3-fluorophenyl)-2-methylpyrrolidine-3-carboxamide] | 0.099 µM | 271.19 °C | 38.4 µM
